Source: the supplement of paper PMC10307832

Tests used:
Assay in all cases: relative viability (nuclei count vs DMSO), 5 days (fraction); higher = more cells survive
NCI-H2085 = tested on: NCI-H2085
Outline: (§1)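 The day after seeding in 1536-well plates, lung cancer cell lines were treated by pin tool with a single drug, or with a fixed anchor-drug dose together with five library-drug doses (not always all listed) in √10 steps. After 5 days, a combined fix-and-stain solution (final 0.05% Triton X-100, 1% formaldehyde, 1 ug/ml Hoechst) was added. Nuclei counted on 4× images gave relative viability as treated counts over vehicle counts, reported as the median of duplicate plates.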

NCI-H322M = tested on: NCI-H322M
Outline: as §1

CAL-12T = tested on: CAL-12T
Outline: as §1

LK-2 = tested on: LK-2
Outline: as §1

LCLC-103H = tested on: LCLC-103H
Outline: as §1

NCI-H2228 = tested on: NCI-H2228
Outline: as §1

NCI-H1437 = tested on: NCI-H1437
Outline: as §1

COR-L 105 = tested on: COR-L 105
Outline: as §1

LU99A = tested on: LU99A
Outline: as §1

NCI-H23 = tested on: NCI-H23
Outline: as §1

BEN = tested on: BEN
Outline: as §1

UMC-11 = tested on: UMC-11
Outline: as §1

NCI-H1651 = tested on: NCI-H1651
Outline: as §1

NCI-H2405 = tested on: NCI-H2405
Outline: as §1

HCC-15 = tested on: HCC-15
Outline: as §1

HCC-827 = tested on: HCC-827
Outline: as §1

201T = tested on: 201T
Outline: as §1

HARA = tested on: HARA
Outline: as §1

LC-2-ad = tested on: LC-2-ad
Outline: as §1

NCI-H1792 = tested on: NCI-H1792
Outline: as §1

LXF-289 = tested on: LXF-289
Outline: as §1

RERF-LC-KJ = tested on: RERF-LC-KJ
Outline: as §1

H3255 = tested on: H3255
Outline: as §1

In the case of `O=c1[nH]c2ccccc2n1C1CCN(CCCC(c2ccc(F)cc2)c2ccc(F)cc2)CC1` [Pimozide] + Nc1nc2[nH]cc(CCc3ccc(C(=O)N[C@@H](CCC(=O)O)C(=O)O)cc3)c2c(=O)[nH]1 [Pemetrexed] (partner 0.2 µM), the relative viability (NCI-H2085; first compound 0.08 µM) was 0.812, the relative viability (NCI-H2085; first compound 0.253 µM) was 1.01 and the relative viability (NCI-H2085; first compound 0.8 µM) was 0.745. The relative viability (NCI-H2085; first compound 2.53 µM) was 0.938, the relative viability (NCI-H2085; first compound 8 µM) was 0.735 and the relative viability (NCI-H322M; first compound 0.08 µM) was 0.571. For the same compound, the relative viability (NCI-H322M; first compound 0.253 µM) was 0.668, the relative viability (NCI-H322M; first compound 0.8 µM) was 0.622 and the relative viability (NCI-H322M; first compound 2.53 µM) was 0.604. The relative viability (NCI-H322M; first compound 8 µM) was 0.609, the relative viability (CAL-12T; first compound 0.08 µM) was 1.22 and the relative viability (CAL-12T; first compound 0.253 µM) was 1.22. For the same compound, the relative viability (CAL-12T; first compound 0.8 µM) was 1.14, the relative viability (CAL-12T; first compound 2.53 µM) was 1.22 and the relative viability (CAL-12T; first compound 8 µM) was 1.11. The relative viability (LK-2; first compound 0.08 µM) was 0.243, the relative viability (LK-2; first compound 0.253 µM) was 0.268 and the relative viability (LK-2; first compound 0.8 µM) was 0.335. It also gave a relative viability (LK-2; first compound 8 µM) of 0.265, a relative viability (LCLC-103H; first compound 0.08 µM) of 0.435 and a relative viability (LCLC-103H; first compound 0.253 µM) of 0.425. It also gave a relative viability (LCLC-103H; first compound 0.8 µM) of 0.471, a relative viability (LCLC-103H; first compound 2.53 µM) of 0.385 and a relative viability (LCLC-103H; first compound 8 µM) of 0.468. It also gave a relative viability (NCI-H2228; first compound 0.08 µM) of 0.329, a relative viability (NCI-H2228; first compound 0.253 µM) of 0.369 and a relative viability (NCI-H2228; first compound 0.8 µM) of 0.306. It also gave a relative viability (NCI-H2228; first compound 2.53 µM) of 0.334, a relative viability (NCI-H2228; first compound 8 µM) of 0.229 and a relative viability (NCI-H1437; first compound 0.08 µM) of 0.354. For the same compound, the relative viability (NCI-H1437; first compound 0.253 µM) was 0.306, the relative viability (NCI-H1437; first compound 0.8 µM) was 0.274 and the relative viability (NCI-H1437; first compound 2.53 µM) was 0.312. It also gave a relative viability (NCI-H1437; first compound 8 µM) of 0.219, a relative viability (COR-L 105; first compound 0.08 µM) of 0.963 and a relative viability (COR-L 105; first compound 0.253 µM) of 1.11. It also gave a relative viability (COR-L 105; first compound 0.8 µM) of 1.07, a relative viability (COR-L 105; first compound 2.53 µM) of 1.2 and a relative viability (COR-L 105; first compound 8 µM) of 0.954. It also gave a relative viability (LU99A; first compound 0.08 µM) of 0.277, a relative viability (LU99A; first compound 0.8 µM) of 0.179 and a relative viability (LU99A; first compound 2.53 µM) of 0.185. For the same compound, the relative viability (LU99A; first compound 8 µM) was 0.191, the relative viability (NCI-H23; first compound 0.08 µM) was 0.64 and the relative viability (NCI-H23; first compound 0.253 µM) was 0.716. The relative viability (NCI-H23; first compound 0.8 µM) was 0.609, the relative viability (NCI-H23; first compound 2.53 µM) was 0.59 and the relative viability (NCI-H23; first compound 8 µM) was 0.591. For the same compound, the relative viability (BEN; first compound 0.08 µM) was 0.856, the relative viability (BEN; first compound 0.253 µM) was 0.689 and the relative viability (BEN; first compound 0.8 µM) was 0.766. For the same compound, the relative viability (BEN; first compound 2.53 µM) was 0.708, the relative viability (BEN; first compound 8 µM) was 0.837 and the relative viability (UMC-11; first compound 0.08 µM) was 0.82. The relative viability (UMC-11; first compound 0.253 µM) was 0.681, the relative viability (UMC-11; first compound 0.8 µM) was 0.748 and the relative viability (UMC-11; first compound 2.53 µM) was 0.772. The relative viability (UMC-11; first compound 8 µM) was 0.725, the relative viability (NCI-H1651; first compound 0.08 µM) was 0.603 and the relative viability (NCI-H1651; first compound 0.253 µM) was 0.487. It also gave a relative viability (NCI-H1651; first compound 0.8 µM) of 0.697, a relative viability (NCI-H1651; first compound 2.53 µM) of 0.562 and a relative viability (NCI-H1651; first compound 8 µM) of 0.566. It also gave a relative viability (NCI-H2405; first compound 0.08 µM) of 0.968, a relative viability (NCI-H2405; first compound 0.253 µM) of 1.09 and a relative viability (NCI-H2405; first compound 0.8 µM) of 1.05. The relative viability (NCI-H2405; first compound 2.53 µM) was 0.989, the relative viability (NCI-H2405; first compound 8 µM) was 0.88 and the relative viability (HCC-15; first compound 0.08 µM) was 0.229. It also gave a relative viability (HCC-15; first compound 0.253 µM) of 0.226, a relative viability (HCC-15; first compound 0.8 µM) of 0.221 and a relative viability (HCC-15; first compound 2.53 µM) of 0.213. It also gave a relative viability (HCC-15; first compound 8 µM) of 0.205, a relative viability (HCC-827; first compound 0.253 µM) of 0.228 and a relative viability (HCC-827; first compound 0.8 µM) of 0.258. The relative viability (HCC-827; first compound 2.53 µM) was 0.289, the relative viability (HCC-827; first compound 8 µM) was 0.254 and the relative viability (201T; first compound 0.08 µM) was 0.31. The relative viability (201T; first compound 0.253 µM) was 0.334, the relative viability (201T; first compound 0.8 µM) was 0.332 and the relative viability (201T; first compound 2.53 µM) was 0.312. It also gave a relative viability (201T; first compound 8 µM) of 0.276, a relative viability (HARA; first compound 0.08 µM) of 0.245 and a relative viability (HARA; first compound 0.253 µM) of 0.262. It also gave a relative viability (HARA; first compound 0.8 µM) of 0.241, a relative viability (HARA; first compound 2.53 µM) of 0.282 and a relative viability (HARA; first compound 8 µM) of 0.198. It also gave a relative viability (LC-2-ad; first compound 0.08 µM) of 0.275, a relative viability (LC-2-ad; first compound 0.253 µM) of 0.288 and a relative viability (LC-2-ad; first compound 0.8 µM) of 0.259. It also gave a relative viability (LC-2-ad; first compound 2.53 µM) of 0.265, a relative viability (LC-2-ad; first compound 8 µM) of 0.254 and a relative viability (NCI-H1792; first compound 0.08 µM) of 0.822. It also gave a relative viability (NCI-H1792; first compound 0.253 µM) of 0.786, a relative viability (NCI-H1792; first compound 0.8 µM) of 0.43 and a relative viability (NCI-H1792; first compound 2.53 µM) of 0.727. For the same compound, the relative viability (NCI-H1792; first compound 8 µM) was 0.356, the relative viability (LXF-289; first compound 0.08 µM) was 0.859 and the relative viability (LXF-289; first compound 0.253 µM) was 0.873. It also gave a relative viability (LXF-289; first compound 0.8 µM) of 0.859, a relative viability (LXF-289; first compound 2.53 µM) of 0.869 and a relative viability (LXF-289; first compound 8 µM) of 0.874. For the same compound, the relative viability (RERF-LC-KJ; first compound 0.08 µM) was 0.452, the relative viability (RERF-LC-KJ; first compound 0.253 µM) was 0.47 and the relative viability (RERF-LC-KJ; first compound 0.8 µM) was 0.466. It also gave a relative viability (RERF-LC-KJ; first compound 2.53 µM) of 0.347, a relative viability (RERF-LC-KJ; first compound 8 µM) of 0.422 and a relative viability (H3255; first compound 0.253 µM) of 0.53. It also gave a relative viability (H3255; first compound 0.8 µM) of 0.503, a relative viability (H3255; first compound 2.53 µM) of 0.519 and a relative viability (H3255; first compound 8 µM) of 0.578.
